Data set [1] has as its system macrophages. In words: Inhibition of macrophage activity (general). Format: cell-based. The settings on record: for propriétés au terme des mêmes tests: same tests as for the tripeptide. The source says:
(§1) Selon des tests effectués par les méthodes décrites dans l'article cité plus haut de "Immunology Letters", la L'thréonyl-L-lysyl-L-proline s'est révélée atoxique pour les cellules et inhibitrice non seulement de la libération, mais également de la synthèse de la β-glucuronidase lysosomiale. En présence du peptide, le taux intracellulaire de cette enzyme décroît également. La L-thréonyl-L-lysyl-L-proline inhibe également la stimulation des macrophages de patients allergiques par l'allergène correspondant, lorsqu'ils ont été préincubés en présence du peptide. Cette dépression est très significative (50 à 70%) dans des essais in vitro. La thréonyl-L-lysyl-L-proline présente un pouvoir inhibiteur d'environ 60% aux concentrations de 200 nanogrammes à 20 picogrammes, ce pouvoir inhibiteur étant même de 50% à 2 picogrammes. Cette inhibition par le peptide se manifeste aussi dans des essais d'activation de macrophages par des réactions (IgE)-(Anti-IgE), que ces macrophages aient été incubés auparavant in vitro en présence du peptide, ou obtenus à partir d'animaux auxquels le peptide avait antérieurement été administré par voie intraveineuse (chez le rat, à des doses de 10 µg, trois heures avant le prélèvement des cellules). La libération d'anion superoxyde par les macrophages de rats est également inhibée par le tripeptide en question. […] Le peptide administré au rat induit également une inhibition de l'anaphylaxie cutanée passive provoquée chez l'animal par les administrations successives d'un antigène et de l'antisérum correspondant.

In data set [2] the test system is cellules. In words: Toxicity for the cells. Format: cell-based. To be noted: methods of the cited Immunology Letters article. The source says:
(§2) Selon des tests effectués par les méthodes décrites dans l'article cité plus haut de "Immunology Letters", la L'thréonyl-L-lysyl-L-proline s'est révélée atoxique pour les cellules et inhibitrice non seulement de la libération, mais également de la synthèse de la β-glucuronidase lysosomiale. En présence du peptide, le taux intracellulaire de cette enzyme décroît également. La L-thréonyl-L-lysyl-L-proline inhibe également la stimulation des macrophages de patients allergiques par l'allergène correspondant, lorsqu'ils ont été préincubés en présence du peptide. Cette dépression est très significative (50 à 70%) dans des essais in vitro. La thréonyl-L-lysyl-L-proline présente un pouvoir inhibiteur d'environ 60% aux concentrations de 200 nanogrammes à 20 picogrammes, ce pouvoir inhibiteur étant même de 50% à 2 picogrammes. Cette inhibition par le peptide se manifeste aussi dans des essais d'activation de macrophages par des réactions (IgE)-(Anti-IgE), que ces macrophages aient été incubés auparavant in vitro en présence du peptide, ou obtenus à partir d'animaux auxquels le peptide avait antérieurement été administré par voie intraveineuse (chez le rat, à des doses de 10 µg, trois heures avant le prélèvement des cellules). La libération d'anion superoxyde par les macrophages de rats est également inhibée par le tripeptide en question. […]

Data set [3] concerns β-glucuronidase lysosomiale. In words: Release and synthesis of lysosomal β-glucuronidase by macrophages. The data set is classed as cell-based.
Source text: as §1

Data set [4] relates to macrophages de patients allergiques. In words: Stimulation of macrophages of allergic patients by the corresponding allergen, in vitro. The data set is classed as cell-based. The source says: D'autre part, les macrophages alvéolaires de sujets allergiques stimulés par l'allergène correspondant sont également inhibés de manière significative (50 à 60%) s'ils ont été péalablement incubés avec des produits de l'hydrolyse des IgG par les protéases parasitaires.
Selon des tests effectués par les méthodes décrites dans l'article cité plus haut de "Immunology Letters", la L'thréonyl-L-lysyl-L-proline s'est révélée atoxique pour les cellules et inhibitrice non seulement de la libération, mais également de la synthèse de la β-glucuronidase lysosomiale. En présence du peptide, le taux intracellulaire de cette enzyme décroît également. La L-thréonyl-L-lysyl-L-proline inhibe également la stimulation des macrophages de patients allergiques par l'allergène correspondant, lorsqu'ils ont été préincubés en présence du peptide. Cette dépression est très significative (50 à 70%) dans des essais in vitro. La thréonyl-L-lysyl-L-proline présente un pouvoir inhibiteur d'environ 60% aux concentrations de 200 nanogrammes à 20 picogrammes, ce pouvoir inhibiteur étant même de 50% à 2 picogrammes. […]

Data set [5] concerns macrophages. In words: Macrophage activation by (IgE)-(Anti-IgE) reactions, macrophages pre-incubated in vitro with the peptide. Format: cell-based. The settings on record: macrophages incubated beforehand in vitro with the peptide.
Source text: as §2

Data set [6] has as its system macrophages. In words: Macrophage activation by (IgE)-(Anti-IgE) reactions, macrophages from animals given the peptide intravenously. The data set is classed as in vivo. The settings on record: rat, intravenous, 10 µg, three hours before cell collection.
Source text: as §2

Data set [7] concerns macrophages de rats. In words: Superoxide anion release by macrophages. The data set is classed as cell-based.
Source text: as §2

Data set [8] has as its system mastocytes. In words: Mast cell degranulation in vitro. The data set is classed as cell-based, rats. The settings on record: pre-incubated with peptide; stimulants polymyxine or phytohémagglutinine.
The subject of data set [9] is anaphylaxie cutanée passive. In words: Passive cutaneous anaphylaxis. Format: in vivo. The settings on record: rat; provoked by successive administration of antigen and corresponding antiserum.
Source text: as §2

Data set [10] concerns macrophages. The settings on record: macrophages challenged simultaneously by an antigen and the peptide; cited from earlier work.

Each structure is given as a SMILES string. Residues, ends and D or L forms follow the SMILES beside them.

For the compound `N=C(N)NCCC[C@H](NC(=O)[C@@H]1CCCN1C(=O)[C@@H](N)CCCCN)C(=O)O` [L-lysyl-L-prolyl-L-arginine, reference compound] (H-Lys-Pro-Arg-OH), the “activité à l'égard de l'activité des macrophages” value in data set [1] is “n'est pas active”.

`C[C@@H](O)[C@H](N)C(=O)N[C@@H](CCCCN)C(=O)N1CCC[C@H]1C(=O)O` [L-thréonyl-L-lysyl-L-proline] (H-Thr-Lys-Pro-OH): the “activité à l'égard de l'activité des macrophages” value in data set [1] was “activité inhibitrice semblable”. Further, the “toxicité pour les cellules” value in [2] is reported as “atoxique”. The “libération de la β-glucuronidase lysosomiale” value in [3] is on record as “inhibitrice”. In addition, the “synthèse de la β-glucuronidase lysosomiale” value in [3] is on record as “inhibitrice”. In addition, the “taux intracellulaire de cette enzyme” value in data set [3] (β-glucuronidase, in presence of the peptide) was “décroît”. Further, the pouvoir inhibiteur in [4] (2 picogrammes) is recorded as 50%; in data set [4] (concentrations de 200 nanogrammes à 20 picogrammes), about 60%. The “inhibition de l'activation de macrophages par des réactions (IgE)-(Anti-IgE)” value in data set [5] and in data set [6] was “inhibition” throughout. Besides, the “libération d'anion superoxyde par les macrophages de rats” value in data set [7] is recorded as “inhibée”. The dégranulation des mastocytes result in data set [8] is recorded as “inhibition sensible”. In addition, in data set [9], the “inhibition de l'anaphylaxie cutanée passive” value is listed as “inhibition”. For the same compound, in data set [10], the “propriété d'activer les macrophages” value is listed as “abolition”.

Regarding `C[C@@H](O)[C@H](N)C(=O)N[C@@H](CCCCN)C(=O)N1CCC[C@H]1C(N)=O` [dérivé amidé, amide de la thréonyl-lysylproline] (H-Thr-Lys-Pro-NH2), the “propriétés au terme des mêmes tests” value in data set [1] is recorded as “essentiellement les mêmes propriétés”.

Regarding `CC(=O)N[C@H](C(=O)N[C@@H](CCCCN)C(=O)N1CCC[C@H]1C(=O)O)[C@@H](C)O` [dérivé N-acétylé] (Ac-Thr-Lys-Pro-OH), the “propriétés au terme des mêmes tests” value in data set [1] is “essentiellement les mêmes propriétés”.

The values above are taken from patent EP0099286B1, “Compound containing a tripeptide sequence of the threonyl-lysyl proline-type, or similar, useful as an anti-inflammatory, anti-allergic or antalgesic agent” (INSTITUT PASTEUR DE LILLE, priority 1982, dated 1987).
